Consider 14 compounds from ChEMBL document CHEMBL3734673, “Potent chemical chaperone compounds for GM1-gangliosidosis: N-substituted (+)-conduramine F-4 derivatives” (Medchemcomm, 2015).

Molecules are shown by their SMILES. Positions count from the first letter of the chain named. The source made the active and inactive calls. The rule behind the calls is not given here. Some results are limits rather than exact numbers.

For data set [1], the target named is T1, Beta-galactosidase (Bos taurus) (UniProt Q58D55).
T1 sequence (whole entry): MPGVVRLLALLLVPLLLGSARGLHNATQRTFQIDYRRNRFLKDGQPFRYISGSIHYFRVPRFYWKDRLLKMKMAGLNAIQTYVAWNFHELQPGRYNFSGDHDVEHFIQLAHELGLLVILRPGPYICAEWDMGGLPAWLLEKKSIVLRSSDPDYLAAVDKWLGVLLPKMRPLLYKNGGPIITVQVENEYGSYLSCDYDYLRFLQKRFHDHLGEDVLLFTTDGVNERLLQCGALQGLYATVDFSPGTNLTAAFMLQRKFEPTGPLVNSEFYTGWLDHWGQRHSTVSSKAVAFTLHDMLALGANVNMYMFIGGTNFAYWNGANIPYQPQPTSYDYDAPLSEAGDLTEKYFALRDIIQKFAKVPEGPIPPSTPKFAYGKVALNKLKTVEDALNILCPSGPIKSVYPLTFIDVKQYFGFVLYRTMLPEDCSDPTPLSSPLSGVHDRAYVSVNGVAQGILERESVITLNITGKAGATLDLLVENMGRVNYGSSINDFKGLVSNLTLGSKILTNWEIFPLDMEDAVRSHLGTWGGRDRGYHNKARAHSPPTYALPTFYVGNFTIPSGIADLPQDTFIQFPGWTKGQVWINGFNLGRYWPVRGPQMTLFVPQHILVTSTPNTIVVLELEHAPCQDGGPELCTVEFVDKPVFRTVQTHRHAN
Briefly: Inhibition of bovine liver beta-galactosidase using p-nitrophenyl-beta-D-galactopyranoside as substrate preincubated with substrate followed by protein addition measured after 30 mins by microplate reader analysis.

A short description of data set [2]: Cytotoxicity against human fibroblasts at 200 uM by LDH assay. The class given is cell-based. The conditions noted are these: fibroblast.
Data set [3] in a line: Inhibition of human alpha-galactosidase isolated from human fibroblasts incubated for 30 mins using […] analysis.
Data set [4] has as its target T2, Lysosomal acid glucosylceramidase (Homo sapiens, UniProt P04062).
T2 sequence (P04062 whole entry): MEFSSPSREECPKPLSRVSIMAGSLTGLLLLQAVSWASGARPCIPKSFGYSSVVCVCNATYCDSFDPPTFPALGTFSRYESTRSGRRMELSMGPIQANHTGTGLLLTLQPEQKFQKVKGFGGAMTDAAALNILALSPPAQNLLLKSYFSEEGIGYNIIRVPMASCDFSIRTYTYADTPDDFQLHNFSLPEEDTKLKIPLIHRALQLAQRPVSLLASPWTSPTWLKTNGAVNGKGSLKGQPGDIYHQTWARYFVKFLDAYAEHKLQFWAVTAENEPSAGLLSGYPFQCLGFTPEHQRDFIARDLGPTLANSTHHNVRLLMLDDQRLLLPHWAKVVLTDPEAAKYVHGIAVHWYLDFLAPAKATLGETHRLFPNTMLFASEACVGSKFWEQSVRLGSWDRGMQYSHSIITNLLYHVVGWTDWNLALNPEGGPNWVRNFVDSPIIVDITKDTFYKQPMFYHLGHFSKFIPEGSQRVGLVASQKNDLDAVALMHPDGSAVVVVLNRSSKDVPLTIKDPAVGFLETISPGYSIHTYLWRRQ
The experiment in a line: Inhibition of human beta-glucosidase isolated from human fibroblasts incubated for 30 mins using […] analysis.

For the next data set, the target named is T3, Beta-galactosidase (Homo sapiens, UniProt P16278).
T3 sequence (P16278 whole entry): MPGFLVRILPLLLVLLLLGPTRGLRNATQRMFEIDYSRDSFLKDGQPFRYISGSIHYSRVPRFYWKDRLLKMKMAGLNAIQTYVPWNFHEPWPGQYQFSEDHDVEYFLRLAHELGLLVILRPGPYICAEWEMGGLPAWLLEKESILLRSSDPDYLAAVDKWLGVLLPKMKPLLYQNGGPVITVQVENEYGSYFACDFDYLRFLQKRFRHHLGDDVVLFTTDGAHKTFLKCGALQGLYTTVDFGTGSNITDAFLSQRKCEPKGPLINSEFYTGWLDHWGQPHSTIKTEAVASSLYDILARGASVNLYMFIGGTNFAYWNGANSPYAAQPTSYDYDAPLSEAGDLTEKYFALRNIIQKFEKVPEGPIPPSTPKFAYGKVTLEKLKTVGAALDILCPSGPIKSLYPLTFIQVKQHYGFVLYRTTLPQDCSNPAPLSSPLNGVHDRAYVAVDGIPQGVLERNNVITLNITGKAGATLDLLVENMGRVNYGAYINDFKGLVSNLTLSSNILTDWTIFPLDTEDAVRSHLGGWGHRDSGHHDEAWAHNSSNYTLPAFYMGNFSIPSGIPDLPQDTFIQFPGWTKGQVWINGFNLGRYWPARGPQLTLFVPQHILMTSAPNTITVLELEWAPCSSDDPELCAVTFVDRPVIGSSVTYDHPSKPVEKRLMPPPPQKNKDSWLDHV
The experiment in a line: Inhibition of human beta-galactosidase expressed in mouse fibroblasts using 4-methylumbelliferone -conugated beta-D-galactoside as substrate incubated for 30 mins at pH 4.5 followed by substrate addition by fluorescence analysis.

Data set [5] concerns T4, Beta-galactosidase (Homo sapiens), P16278 [R201C].
T4 sequence (whole entry): T3 sequence (P16278 whole entry) with R201C
Briefly: Activation of human beta-galactosidase R201C mutant expressed in mouse fibroblasts using 4-methylumbelliferone -conugated beta-D-galactoside as substrate at 20 uM preincubated for 48 hrs followed by substrate addition measured after 30 mins by fluorescence analysis relative to control.

A further data set deals with Prunus dulcis. The experiment in a line: Inhibition of almond beta-glucosidase using p-nitrophenyl-beta-D-glucopyranoside as substrate preincubated with substrate followed by protein addition measured after 30 mins by microplate reader analysis.
Data set [6] can be described thus: Cytotoxicity against human fibroblasts at 20 uM by LDH assay. It is filed as cell-based. Conditions: fibroblast.
Data set [7] has as its system T4, Beta-galactosidase (Homo sapiens), P16278 [R201C]. The experiment in a line: Activation of human beta-galactosidase R201C mutant expressed in mouse fibroblasts using 4-methylumbelliferone -conugated beta-D-galactoside as substrate at 2 uM preincubated for 48 hrs followed by substrate addition measured after 30 mins by fluorescence analysis relative to control.

As to `CCC(CC)CN[C@@H]1C=C[C@H](O)[C@H](O)[C@H]1O.Cl`, the inhibition entry (in data set [1]; with Prunus dulcis) was “Active” throughout. The same compound yielded an Activity in data set [2] of less than 10%. Besides, the IC50 is more than 1000 µM in [3], more than 1000 µM in data set [4] and 15 µM on Beta-galactosidase. For the same compound, the fold change (FC) in data set [5] is 7.4.

Consider `Cl.O[C@@H]1[C@@H](O)[C@H](NCCc2ccccc2)C=C[C@@H]1O`, for which the inhibition entry (in data set [1]; with Prunus dulcis) was “Active” in each case. In addition, the Activity in [2] is on record as less than 10%. The IC50 is more than 1000 µM in [3], more than 1000 µM in [4] and 86 µM on Beta-galactosidase. In data set [5], the fold change (FC) came out at 4.2.

On to `CCCCCCCCCCN[C@@H]1C=C[C@H](O)[C@H](O)[C@H]1O.Cl`, for which the inhibition result (in [1]; in the data set with Prunus dulcis) was “Active” throughout. For the same compound, the Activity in data set [2] was determined as 54%; in data set [6] it was 24%. Besides, the IC50 is more than 1000 µM in data set [3], more than 1000 µM in data set [4] and 43 µM against Beta-galactosidase. In addition, the fold change (FC) in [5] is 1.6.

Take `Cl.O[C@@H]1[C@@H](O)[C@H](NCC2CCCCC2)C=C[C@@H]1O`: the inhibition result (in data set [1]; in the data set with Prunus dulcis) was “Active” throughout. The Activity in [2] turned out to be 3.8%; in [6] it was 0.7%. For the same compound, the values for the IC50 (in data set [3]; in data set [4]; at Beta-galactosidase) were more than 1000 µM, more than 1000 µM and 60 µM, respectively. Moreover, in data set [5], the fold change (FC) is 8.5.

As to `CCCCCN[C@@H]1C=C[C@H](O)[C@H](O)[C@H]1O.Cl`, the inhibition entry (in data set [1]; in the data set with Prunus dulcis) was “Active” throughout. Further, the Activity in data set [2] was less than 10%. Also, the results for the IC50 (in data set [3]; in data set [4]; against Beta-galactosidase) were more than 1000 µM, more than 1000 µM and 19 µM, respectively. Besides, the fold change (FC) in data set [5] turned out to be 4.

For `CCC(CC)N[C@@H]1C=C[C@H](O)[C@H](O)[C@H]1O.Cl`, the inhibition entry (in [1]; with Prunus dulcis) was “Active” throughout. The compound also returned an Activity in data set [2] of less than 10%. Besides, the IC50 (in data set [3]; in data set [4]; against Beta-galactosidase) was more than 1000 µM each time. Further, the fold change (FC) in data set [5] turned out to be 1.2.

Turning to `CC(C)CN[C@@H]1C=C[C@H](O)[C@H](O)[C@H]1O.Cl`, the inhibition entry (in data set [1]; in the data set with Prunus dulcis) was “Active” throughout. In data set [2], this compound showed an Activity of less than 10%. Also, the IC50 was more than 1000 µM in [3], more than 1000 µM in [4] and 41 µM on Beta-galactosidase. In addition, the fold change (FC) in data set [5] worked out at 4.6.

As for `CCCCN[C@@H]1C=C[C@H](O)[C@H](O)[C@H]1O.Cl`, the inhibition result (in [1]; with Prunus dulcis) was “Active” in each case. Further, in data set [2], the Activity is on record as less than 10%. Further, the IC50 is more than 1000 µM in data set [3], more than 1000 µM in data set [4] and 50 µM on Beta-galactosidase. For the same compound, in [5], the fold change (FC) was determined as 2.

`CCCCCCCCN[C@@H]1C=C(CO)[C@H](O)[C@H](O)[C@H]1O.Cl`: the Activity in data set [2] was determined as 7.5%; in data set [6], 1.1%. Also, the IC50 is more than 1000 µM in data set [3], more than 1000 µM in [4] and 1.7 µM against Beta-galactosidase. The results for the fold change (FC) in data set [7] and in data set [5] were 4.6 and 3.6, respectively.

`CCCCCCN[C@@H]1C=C[C@H](O)[C@H](O)[C@H]1O.Cl`: the inhibition result (in data set [1]; in the data set on Prunus dulcis) was “Active” throughout. The compound further yielded an Activity in data set [2] of less than 10%. The IC50 is more than 1000 µM in [3], more than 1000 µM in data set [4] and 56 µM at Beta-galactosidase. Also, the fold change (FC) in data set [5] came to 4.6.

Consider `Cl.O[C@@H]1[C@@H](O)[C@H](NC2CCCCC2)C=C[C@@H]1O`, for which the inhibition entry (in data set [1]; in the data set on Prunus dulcis) was “Active” throughout. In addition, the Activity in data set [2] is less than 10%. The IC50 is more than 1000 µM in [3], more than 1000 µM in data set [4] and 490 µM against Beta-galactosidase. For the same compound, in data set [5], the fold change (FC) amounted to 1.4.

Consider `CC(C)CCN[C@@H]1C=C[C@H](O)[C@H](O)[C@H]1O.Cl`, for which the inhibition entry (in [1]; with Prunus dulcis) was “Active” each time. Moreover, the Activity in data set [2] is reported as less than 10%. Further, the IC50 was more than 1000 µM in data set [3], more than 1000 µM in data set [4] and 28 µM at Beta-galactosidase. Also, the fold change (FC) in data set [5] was 4.6.

For the compound `Cl.OCCCN[C@@H]1C=C[C@H](O)[C@H](O)[C@H]1O`, the inhibition result (in data set [1]; in the data set on Prunus dulcis) was “Active” in each case. Besides, the Activity in data set [2] is recorded as less than 10%. Further, the IC50 (in data set [3]; in [4]; against Beta-galactosidase) was more than 1000 µM each time. Also, in data set [5], the fold change (FC) turned out to be 0.9.

`Cl.O[C@@H]1[C@@H](O)[C@H](NCc2ccccc2)C=C[C@@H]1O`: the inhibition entry (in data set [1]; in the data set on Prunus dulcis) was “Active” in each case. This compound also gave an Activity in data set [2] of less than 10%. Further, the results for the IC50 (in data set [3]; in data set [4]; on Beta-galactosidase) were more than 1000 µM, more than 1000 µM and 180 µM, respectively. The fold change (FC) in [5] amounted to 1.5.

What is called IC50 is the concentration that gives 50% inhibition. The low end stands for greater potency in that assay, the high end for weaker potency in that assay.
